Reference: ChEMBL document CHEMBL1629583, “Establishment of in vitro susceptibility testing methodologies and comparative activities of piperacillin in combination with the penem {beta}-lactamase inhibitor BLI-489” (2009)

Legend:
Assay type in all cases: functional
Pseudomonas aeruginosa = assay: Antimicrobial activity against Pseudomonas aeruginosa clinical isolate after 18 to 22 hrs by broth microdilution method
Haemophilus influenzae = assay: Antimicrobial activity against beta-lactamase-producing Haemophilus influenzae clinical isolate after 18 to 22 hrs by broth microdilution method
Moraxella catarrhalis = assay: Antimicrobial activity against Moraxella catarrhalis clinical isolate after 18 to 22 hrs by broth microdilution method
Staphylococcus aureus [1] = assay: Antimicrobial activity against methicillin-resistant Staphylococcus aureus clinical isolate after 18 to 22 hrs by broth microdilution method
Staphylococcus aureus [2] = assay: Antimicrobial activity against methicillin-susceptible Staphylococcus aureus clinical isolate after 18 to 22 hrs by broth microdilution method
[3] = test system: Staphylococcus epidermidis; assay: Antimicrobial activity against methicillin-resistant Staphylococcus epidermidis clinical isolate after 18 to 22 hrs by broth microdilution method
[4] = test system: Staphylococcus epidermidis; assay: Antimicrobial activity against methicillin-susceptible Staphylococcus epidermidis clinical isolate after 18 to 22 hrs by broth microdilution method
Enterococcus faecalis [5] = assay: Antimicrobial activity against Enterococcus faecalis clinical isolate after 18 to 22 hrs by broth microdilution method
Enterococcus faecium [6] = assay: Antimicrobial activity against Enterococcus faecium clinical isolate after 18 to 22 hrs by broth microdilution method
Enterococcus faecalis [7] = assay: Antimicrobial activity against vancomycin-resistant Enterococcus faecalis clinical isolate after 18 to 22 hrs by broth microdilution method
Enterococcus faecium [8] = assay: Antimicrobial activity against vancomycin-resistant Enterococcus faecium clinical isolate after 18 to 22 hrs by broth microdilution method
Enterococcus avium = assay: Antimicrobial activity against Enterococcus avium clinical isolate after 18 to 22 hrs by broth microdilution method
Streptococcus pneumoniae [9] = assay: Antimicrobial activity against penicillin-susceptible Streptococcus pneumoniae clinical isolate after 18 to 22 hrs by broth microdilution method
Streptococcus pneumoniae [10] = assay: Antimicrobial activity against penicillin-intermediate Streptococcus pneumoniae clinical isolate after 18 to 22 hrs by broth microdilution method
Streptococcus pneumoniae [11] = assay: Antimicrobial activity against penicillin-resistant Streptococcus pneumoniae clinical isolate after 18 to 22 hrs by broth microdilution method
Streptococcus pyogenes = assay: Antimicrobial activity against Streptococcus pyogenes clinical isolate after 18 to 22 hrs by broth microdilution method
Enterococcus durans = assay: Antimicrobial activity against Enterococcus durans clinical isolate after 18 to 22 hrs by broth microdilution method
Enterococcus hirae = assay: Antimicrobial activity against Enterococcus hirae clinical isolate after 18 to 22 hrs by broth microdilution method
Streptococcus agalactiae = assay: Antimicrobial activity against Streptococcus agalactiae clinical isolate after 18 to 22 hrs by broth microdilution method
Citrobacter koseri = assay: Antimicrobial activity against Citrobacter koseri clinical isolate after 18 to 22 hrs by broth microdilution method
Enterobacter cloacae = assay: Antimicrobial activity against Enterobacter cloacae clinical isolate after 18 to 22 hrs by broth microdilution method
Escherichia coli [12] = assay: Antimicrobial activity against class A extended spectrum beta-lactamase- producing Escherichia coli clinical isolate after 18 to 22 hrs by broth microdilution method
Escherichia coli [13] = assay: Antimicrobial activity against AmpC beta-lactamase-producing Escherichia coli clinical isolate after 18 to 22 hrs by broth microdilution method
Citrobacter freundii [14] = assay: Antimicrobial activity against AmpC beta-lactamase-producing Citrobacter freundii clinical isolate after 18 to 22 hrs by broth microdilution method
Klebsiella aerogenes [15] = assay: Antimicrobial activity against AmpC beta-lactamase-producing Enterobacter aerogenes clinical isolate after 18 to 22 hrs by broth microdilution method
Klebsiella aerogenes [16] = assay: Antimicrobial activity against Enterobacter aerogenes clinical isolate after 18 to 22 hrs by broth microdilution method
Citrobacter freundii [17] = assay: Antimicrobial activity against Citrobacter freundii clinical isolate after 18 to 22 hrs by broth microdilution method
Klebsiella pneumoniae [18] = assay: Antimicrobial activity against Klebsiella pneumoniae clinical isolate after 18 to 22 hrs by broth microdilution method
Klebsiella pneumoniae [19] = assay: Antimicrobial activity against class A extended spectrum beta-lactamase- producing Klebsiella pneumoniae clinical isolate after 18 to 22 hrs by broth microdilution method
Klebsiella pneumoniae [20] = assay: Antimicrobial activity against class A extended spectrum beta-lactamase- and class D OXA- producing Klebsiella pneumoniae clinical isolate after 18 to 22 hrs by broth microdilution method
Klebsiella pneumoniae [21] = assay: Antimicrobial activity against AmpC- producing Klebsiella pneumoniae clinical isolate after 18 to 22 hrs by broth microdilution method
Klebsiella oxytoca = assay: Antimicrobial activity against Klebsiella oxytoca clinical isolate after 18 to 22 hrs by broth microdilution method
Serratia marcescens = assay: Antimicrobial activity against Serratia marcescens clinical isolate after 18 to 22 hrs by broth microdilution method
Morganella morganii = assay: Antimicrobial activity against Morganella morganii clinical isolate after 18 to 22 hrs by broth microdilution method
Proteus mirabilis = assay: Antimicrobial activity against Proteus mirabilis clinical isolate after 18 to 22 hrs by broth microdilution method
Providencia stuartii = assay: Antimicrobial activity against Providencia stuartii clinical isolate after 18 to 22 hrs by broth microdilution method
Acinetobacter baumannii = assay: Antimicrobial activity against Acinetobacter baumannii clinical isolate after 18 to 22 hrs by broth microdilution method
[22] = test system: Acinetobacter haemolyticus; assay: Antimicrobial activity against Acinetobacter haemolyticus clinical isolate after 18 to 22 hrs by broth microdilution method
Acinetobacter johnsonii = assay: Antimicrobial activity against Acinetobacter johnsonii clinical isolate after 18 to 22 hrs by broth microdilution method
Acinetobacter junii = assay: Antimicrobial activity against Acinetobacter junii clinical isolate after 18 to 22 hrs by broth microdilution method
Acinetobacter lwoffii = assay: Antimicrobial activity against Acinetobacter lwoffii clinical isolate after 18 to 22 hrs by broth microdilution method

Compound: C[C@H]1COc2c(N3CCN(C)CC3)c(F)cc3c(=O)c(C(=O)O)cn1c23.C[C@H]1COc2c(N3CCN(C)CC3)c(F)cc3c(=O)c(C(=O)O)cn1c23.O [LEVOFLOXACIN]
- MIC50 (Pseudomonas aeruginosa): 1 µg/mL
- MIC90 (Pseudomonas aeruginosa): > 16 µg/mL
- MIC (Haemophilus influenzae): ≤ 0.015 µg/mL
- MIC50 (Haemophilus influenzae): ≤ 0.015 µg/mL
- MIC90 (Haemophilus influenzae): ≤ 0.015 µg/mL
- MIC50 (Moraxella catarrhalis): 0.03 µg/mL
- MIC90 (Moraxella catarrhalis): 0.06 µg/mL
- MIC50 (Staphylococcus aureus [1]): 4 µg/mL
- MIC90 (Staphylococcus aureus [1]): > 16 µg/mL
- MIC50 (Staphylococcus aureus [2]): 0.25 µg/mL
- MIC90 (Staphylococcus aureus [2]): 0.5 µg/mL
- MIC50 [3]: 2 µg/mL
- MIC90 [3]: > 16 µg/mL
- MIC50 [4]: 0.12 µg/mL
- MIC90 [4]: 0.25 µg/mL
- MIC50 (Enterococcus faecalis [5]): 1 µg/mL
- MIC90 (Enterococcus faecalis [5]): > 16 µg/mL
- MIC50 (Enterococcus faecium [6]): 4 µg/mL
- MIC90 (Enterococcus faecium [6]): > 16 µg/mL
- MIC50 (Enterococcus faecalis [7]): 2 µg/mL
- MIC (Enterococcus faecium [8]): > 16 µg/mL
- MIC50 (Enterococcus faecium [8]): > 16 µg/mL
- MIC50 (Enterococcus avium): 2 µg/mL
- MIC90 (Enterococcus avium): 2 µg/mL
- MIC50 (Streptococcus pneumoniae [9]): 1 µg/mL
- MIC90 (Streptococcus pneumoniae [9]): 1 µg/mL
- MIC50 (Streptococcus pneumoniae [10]): 0.5 µg/mL
- MIC90 (Streptococcus pneumoniae [10]): 1 µg/mL
- MIC50 (Streptococcus pneumoniae [11]): 1 µg/mL
- MIC90 (Streptococcus pneumoniae [11]): 1 µg/mL
- MIC50 (Streptococcus pyogenes): 0.5 µg/mL
- MIC90 (Streptococcus pyogenes): 0.5 µg/mL
- MIC50 (Enterococcus durans): 1 µg/mL
- MIC90 (Enterococcus durans): 8 µg/mL
- MIC50 (Enterococcus hirae): 1 µg/mL
- MIC90 (Enterococcus hirae): 8 µg/mL
- MIC50 (Streptococcus agalactiae): 1 µg/mL
- MIC90 (Streptococcus agalactiae): 1 µg/mL
- MIC50 (Citrobacter koseri): 0.03 µg/mL
- MIC90 (Citrobacter koseri): 0.06 µg/mL
- MIC50 (Enterobacter cloacae): 0.06 µg/mL
- MIC90 (Enterobacter cloacae): > 16 µg/mL
- MIC50 (Escherichia coli [12]): 8 µg/mL
- MIC90 (Escherichia coli [12]): > 16 µg/mL
- MIC50 (Escherichia coli [13]): 16 µg/mL
- MIC90 (Escherichia coli [13]): > 16 µg/mL
- MIC50 (Citrobacter freundii [14]): 0.12 µg/mL
- MIC90 (Citrobacter freundii [14]): 8 µg/mL
- MIC50 (Klebsiella aerogenes [15]): 0.12 µg/mL
- MIC90 (Klebsiella aerogenes [15]): 8 µg/mL
- MIC50 (Klebsiella aerogenes [16]): 0.06 µg/mL
- MIC90 (Klebsiella aerogenes [16]): 0.5 µg/mL
- MIC50 (Citrobacter freundii [17]): 0.12 µg/mL
- MIC90 (Citrobacter freundii [17]): 2 µg/mL
- MIC50 (Klebsiella pneumoniae [18]): 0.06 µg/mL
- MIC90 (Klebsiella pneumoniae [18]): 0.5 µg/mL
- MIC50 (Klebsiella pneumoniae [19]): 0.5 µg/mL
- MIC90 (Klebsiella pneumoniae [19]): 8 µg/mL
- MIC50 (Klebsiella pneumoniae [20]): 1 µg/mL
- MIC90 (Klebsiella pneumoniae [20]): > 16 µg/mL
- MIC50 (Klebsiella pneumoniae [21]): 2 µg/mL
- MIC90 (Klebsiella pneumoniae [21]): > 16 µg/mL
- MIC50 (Klebsiella oxytoca): 0.03 µg/mL
- MIC90 (Klebsiella oxytoca): 0.25 µg/mL
- MIC50 (Serratia marcescens): 0.12 µg/mL
- MIC90 (Serratia marcescens): 4 µg/mL
- MIC50 (Morganella morganii): 0.03 µg/mL
- MIC90 (Morganella morganii): > 16 µg/mL
- MIC50 (Proteus mirabilis): 0.5 µg/mL
- MIC90 (Proteus mirabilis): 16 µg/mL
- MIC50 (Providencia stuartii): 1 µg/mL
- MIC90 (Providencia stuartii): 16 µg/mL
- MIC50 (Acinetobacter baumannii): 8 µg/mL
- MIC90 (Acinetobacter baumannii): 16 µg/mL
- MIC50 [22]: 0.12 µg/mL
- MIC90 [22]: 2 µg/mL
- MIC50 (Acinetobacter johnsonii): 0.12 µg/mL
- MIC90 (Acinetobacter johnsonii): 2 µg/mL
- MIC50 (Acinetobacter junii): 0.12 µg/mL
- MIC90 (Acinetobacter junii): 2 µg/mL
- MIC50 (Acinetobacter lwoffii): 0.12 µg/mL
- MIC90 (Acinetobacter lwoffii): 2 µg/mL
